In patent US20100056516A1 (priority 2006, published 2010):

Tests used:
HXB2 virus = test: microbe, parasite or virus in culture; format: cell-based, HIV; conditions: Human immunodeficiency virus 1, HXB2, HeLaP4-2, read-out: antiviral IC50 (SCIA-B)
Procedure: An assay for measuring the inhibition of acute HIV infection with HeLa P4-2 cells in a single cycle infectivity assay (SCIA-A) was conducted in accordance with Joyce, J. G., et al., J. Biol. Chem., 2002, 277, 45811, Hazuda, D. J. et al., Science, 2000, 287, 646, and Kimpton, J. et al, J. Virol. 1992, 66, 2232. Infectious virus was produced by transfecting 293T cells with HIV proviral DNA in which the integrase gene was derived from a IIIB isolate and the remainder of the HIV genome was derived from the NL4-3 isolate.
This assay B for measuring the inhibition of acute HIV infection with HeLa P4-2 cells in a single cycle infectivity assay (SCIA-B) is essentially the same as Assay A described above, except that HXB2 virus is employed instead of the IIIb isolate.

HIV integrase = HIV integrase (Human immunodeficiency virus type 1 group M subtype B, UniProt P04585); test: integrase strand transfer assay (STA); format: biochemical; conditions: integrase strand transfer; read-out: IC50 in the STA assay

Structure (SMILES)	IC50 (HXB2 virus)	IC50 (HIV integrase)
CCOC(=O)c1cnc2c(c1)c(O)c(C(=O)NCc1ccccc1)c(=O)n2O [Example 92, Ethyl 6-[(benzylamino)carbonyl]-5,8-dihydroxy-7-oxo-7,8-dihydro-1,8-naphthyridine-3-carboxylate]	< 100 µM	< 50 µM
CC(=O)c1c(O)c2cccnc2n(O)c1=O [Example 93, 3-acetyl-1,4-dihydroxy-1,8-naphthyridin-2(1H)-one]	< 100 µM	> 50 µM
Cc1n[nH]c2c1c(=O)n(O)c1ncccc21 [Example 94, 5-Hydroxy-3-methyl-1,5-dihydro-4H-pyrazolo[4,3-c]-1,8-naphthyridin-4-one]	< 100 µM	< 50 µM
O=c1c(-c2ccccc2)c(O)c2cc(S(=O)(=O)Nc3ccccc3)cnc2n1O [Example 95, 5,8-Dihydroxy-7-oxo-N,6-diphenyl-7,8-dihydro-1,8-naphthyridine-3-sulfonamide]	< 100 µM	< 50 µM
O=c1c(-c2ccccc2)c(O)c2cc(S(=O)(=O)NCc3ccccc3)cnc2n1O [Example 96, N-benzyl-5,8-dihydroxy-7-oxo-6-phenyl-7,8-dihydro-1,8-naphthyridine-3-sulfonamide]	< 100 µM	< 50 µM
CCOC(=O)c1c(N)c2cccnc2n(O)c1=O [Example 97, Ethyl 4-amino-1-hydroxy-2-oxo-1,2-dihydro-1,8-naphthyridine-3-carboxylate]	< 100 µM	< 50 µM
CCOC(=O)c1c(N)c2cc(-c3ccccc3)cnc2n(O)c1=O [Example 98, Ethyl 4-amino-1-hydroxy-2-oxo-6-phenyl-1,2-dihydro-1,8-naphthyridine-3-carboxylate]	< 100 µM	< 50 µM
Nc1cc(=O)n(O)c2ncccc12 [Example 99, 4-Amino-1-hydroxy-1,8-naphthyridin-2(1H)-one]	< 100 µM	< 50 µM
CC(=O)Nc1cc(=O)n(O)c2ncccc12 [Example 100, N-(1-Hydroxy-2-oxo-1,2-dihydro-1,8-naphthyridin-4-yl)acetamide]	< 100 µM	< 50 µM
O=C(Cc1ccccc1)Nc1cc(=O)n(O)c2ncccc12 [Example 101, N-(1-Hydroxy-2-oxo-1,2-dihydro-1,8-naphthyridin-4-yl)-2-phenylacetamide]	< 100 µM	< 50 µM
O=C(Nc1cc(=O)n(O)c2ncccc12)c1ccccc1 [Example 102, N-(1-Hydroxy-2-oxo-1,2-dihydro-1,8-naphthyridin-4-yl)benzamide]	< 100 µM	< 50 µM
O=c1cc(Nc2ccccc2)c2cccnc2n1O [Example 103, 4-Anilino-1-hydroxy-1,8-naphthyridin-2(1H)-one]	< 100 µM	< 50 µM
O=c1cc(Nc2ccccc2-c2ccccc2)c2cccnc2n1O [Example 104, 4-(Biphenyl-2-ylamino)-1-hydroxy-1,8-naphthyridin-2(1H)-one]	< 100 µM	< 50 µM
O=c1cc(Nc2cccc(-c3ccccc3)c2)c2cccnc2n1O [Example 105, 4-(Biphenyl-3-ylamino)-1-hydroxy-1,8-naphthyridin-2(1H)-one]	< 100 µM	< 50 µM
O=c1cc(NC(CN2CCOCC2)c2ccccc2)c2cccnc2n1O (stereo not shown) [Example 107, 1-Hydroxy-4-[(2-morpholin-4-yl-1-phenylethyl)amino]-1,8-naphthyridin-2(1H)-one]	< 100 µM	< 50 µM
O=c1cc(NC2CCN(Cc3ccccc3)CC2)c2cccnc2n1O [Example 108, 4-[(1-Benzylpiperidin-4-yl)amino]-1-hydroxy-1,8-naphthyridin-2(1H)-one]	< 100 µM	< 50 µM
CCOC(=O)N1CCC(Nc2cc(=O)n(O)c3ncccc23)CC1 [Example 109, Ethyl 4-[(1-hydroxy-2-oxo-1,2-dihydro-1,8-naphthyridin-4-yl)amino]piperidine-1-carboxylate]	< 100 µM	< 50 µM
O=c1cc(NCC(c2ccccc2)N2CCOCC2)c2cccnc2n1O (stereo not shown) [Example 110, 1-Hydroxy-4-[(2-morpholin-4-yl-2-phenylethyl)amino]-1,8-naphthyridin-2(1H)-one]	< 100 µM	< 50 µM
O=c1cc(NC2CCN(Cc3ccccc3)C2)c2cccnc2n1O (stereo not shown) [Example 112, 4-[(1-Benzylpyrrolidin-3-yl)amino]-1-hydroxy-1,8-naphthyridin-2(1H)-one]	< 100 µM	< 50 µM
O=c1cc(N[C@@H]2CCN(Cc3ccccc3)C2)c2cccnc2n1O [Example 113, 4-{[(3R)-1-Benzylpyrrolidin-3-yl]amino}-1-hydroxy-1,8-naphthyridin-2(1H)-one]	< 100 µM	< 50 µM
O=c1cc(N[C@H]2CCN(Cc3ccccc3)C2)c2cccnc2n1O [Example 114, 4-{[(3S)-1-Benzylpyrrolidin-3-yl]amino}-1-hydroxy-1,8-naphthyridin-2(1H)-one]	< 100 µM	< 50 µM

Structure (SMILES)	IC50 (HXB2 virus)	IC50 (HIV integrase)
CN(Cc1cccc(Cn2cncn2)c1)c1cc(=O)n(O)c2ncccc12 [Example 116]	< 100 µM	< 50 µM
O=c1cc(N2CCC[C@@H]2CF)c2cccnc2n1O [Example 117, 4-[(2R)-2-(fluoromethyl)pyrrolidin-1-yl]-1-hydroxy-1,8-naphthyridin-2(1H)-one]	< 100 µM	< 50 µM
O=c1cc(N2CCCC(F)C2)c2cccnc2n1O (stereo not shown) [Example 118, 4-(3-fluoropiperidin-1-yl)-1-hydroxy-1,8-naphthyridin-2(1H)-one]	< 100 µM	< 50 µM
O=c1cc(N2CCc3ccccc3C2)c2cccnc2n1O [Example 119, 4-(3,4-dihydroisoquinolin-2(1H)-yl)-1-hydroxy-1,8-naphthyridin-2(1H)-one]	< 100 µM	< 50 µM
N#Cc1ccc2c(c1)CN(c1cc(=O)n(O)c3ncccc13)CC2 [Example 120, 2-(1-hydroxy-2-oxo-1,2-dihydro-1,8-naphthyridin-4-yl)-1,2,3,4-tetrahydroisoquinoline-7-carbonitrile]	< 100 µM	< 50 µM
COC(=O)c1ccc2c(c1)CN(c1cc(=O)n(O)c3ncccc13)CC2 [Example 122, 4-[7-(methoxycarbonyl)-3,4-dihydroisoquinolin-2(1H)-yl]-1-hydroxy-1,8-naphthyridin-2(1H)-one]	< 100 µM	< 50 µM
C[C@@H](Nc1cc(=O)n(O)c2ncccc12)c1ccccc1 [Example 125, 1-hydroxy-4-{[(1R)-1-phenylethyl]amino}-1,8-naphthyridin-2(1H)-one]	< 100 µM	< 50 µM
O=c1cc(NCc2ccccc2)c2cccnc2n1O [Example 126, 4-(benzylamino)-1-hydroxy-1,8-naphthyridin-2(1H)-one]	< 100 µM	< 50 µM
CCOC(=O)c1c(Nc2ccccc2)c2cccnc2n(O)c1=O [Example 127, Ethyl 4-anilino-1-hydroxy-2-oxo-1,2-dihydro-1,8-naphthyridine-3-carboxylate]	< 100 µM	< 50 µM
CCOC(=O)c1c(NCc2ccccc2)c2cccnc2n(O)c1=O [Example 128, Ethyl 4-(benzylamino)-1-hydroxy-2-oxo-1,2-dihydro-1,8-naphthyridine-3-carboxylate]	< 100 µM	< 50 µM
CCOC(=O)c1c(N[C@@H](CO)c2ccccc2)c2cccnc2n(O)c1=O [Example 129, Ethyl 1-hydroxy-4-{[(1R)-2-hydroxy-1-phenylethyl]amino}-2-oxo-1,2-dihydro-1,8-naphthyridine-3-carboxylate]	< 100 µM	< 50 µM
CN(Cc1ccccc1)c1cc(=O)n(O)c2ncccc12 [Example 130, 4-[benzyl(methyl)amino]-1-hydroxy-1,8-naphthyridin-2(1H)-one]	< 100 µM	< 50 µM
O=c1cc(N2CCN(c3ccccc3)CC2)c2cccnc2n1O [Example 131, 1-hydroxy-4-(4-phenylpiperazin-1-yl)-1,8-naphthyridin-2(1H)-one]	< 100 µM	< 50 µM
O=c1cc(NCCc2ccccc2)c2cccnc2n1O [Example 132, 1-hydroxy-4-[(2-phenylethyl)amino]-1,8-naphthyridin-2(1H)-one]	< 100 µM	< 50 µM
O=c1cc(N2CCC(Cc3ccccc3)CC2)c2cccnc2n1O [Example 133, 4-(4-benzylpiperidin-1-yl)-1-hydroxy-1,8-naphthyridin-2(1H)-one]	< 100 µM	< 50 µM
O=c1cc(N2CCN(Cc3ccccc3)CC2)c2cccnc2n1O [Example 136, 4-(4-benzylpiperazin-1-yl)-1-hydroxy-1,8-naphthyridin-2(1H)-one]	< 100 µM	< 50 µM
O=c1cc(N2CCC(N3CCOCC3)CC2)c2cccnc2n1O [Example 138, 1-hydroxy-4-[4-(4-morpholinyl)-1-piperidinyl]-1,8-naphthyridin-2(1H-one)]	< 100 µM	< 50 µM
O=c1cc(Nc2ccccc2N2CCCCC2)c2cccnc2n1O [Example 139, 1-hydroxy-4-{[2-(1-piperidinyl)pheny]amino}-1,8-naphthyridin-2(1H-one)]	< 100 µM	< 50 µM
O=c1cc(NCc2ccccc2Cl)c2cccnc2n1O [Example 141, 4-[(2-chlorobenzyl)amino]-1-hydroxy-1,8-naphthyridin-2(1H-one)]	< 100 µM	< 50 µM
Cc1ccc(CNc2cc(=O)n(O)c3ncccc23)cc1 [Example 143, 1-hydroxy-4-[(4-methylbenzyl)amino]-1,8-naphthyridin-2(1H-one)]	< 100 µM	< 50 µM
